# Laboratory results from US8883789B2, “Piperazine derivatives and their use as positive allosteric modulators of mGluR5 receptors” (Boehringer Ingelheim International GmbH, priority 2011, dated 2014).
# Biological target: T1, human recombinant mGluR5 (Homo sapiens, UniProt P41594)
# T1 construct: expressed in transfected cells; hygromycin and geneticin selection
# Assay: positive modulation of mGluR5, calcium based FLIPR assay
# Conditions: HEK 293 cell line expressing human recombinant mGluR5; Ca2+ peak height after glutamate at approximately 5% basal stimulation; nonlinear regression
# Summary of the method: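 HEK293 cells with tetracycline-free induction, Calcium-4 dye-loaded in Ringer pH 7.4. Compound added 5 min before glutamate at ~5% of maximal effect, 1% DMSO. EC50 from peak Ca2+ fluorescence, normalized to basal glutamate (100%) and 10 μM CDPPB (200%), via nonlinear regression.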
# T1 sequence (P41594 21-1212): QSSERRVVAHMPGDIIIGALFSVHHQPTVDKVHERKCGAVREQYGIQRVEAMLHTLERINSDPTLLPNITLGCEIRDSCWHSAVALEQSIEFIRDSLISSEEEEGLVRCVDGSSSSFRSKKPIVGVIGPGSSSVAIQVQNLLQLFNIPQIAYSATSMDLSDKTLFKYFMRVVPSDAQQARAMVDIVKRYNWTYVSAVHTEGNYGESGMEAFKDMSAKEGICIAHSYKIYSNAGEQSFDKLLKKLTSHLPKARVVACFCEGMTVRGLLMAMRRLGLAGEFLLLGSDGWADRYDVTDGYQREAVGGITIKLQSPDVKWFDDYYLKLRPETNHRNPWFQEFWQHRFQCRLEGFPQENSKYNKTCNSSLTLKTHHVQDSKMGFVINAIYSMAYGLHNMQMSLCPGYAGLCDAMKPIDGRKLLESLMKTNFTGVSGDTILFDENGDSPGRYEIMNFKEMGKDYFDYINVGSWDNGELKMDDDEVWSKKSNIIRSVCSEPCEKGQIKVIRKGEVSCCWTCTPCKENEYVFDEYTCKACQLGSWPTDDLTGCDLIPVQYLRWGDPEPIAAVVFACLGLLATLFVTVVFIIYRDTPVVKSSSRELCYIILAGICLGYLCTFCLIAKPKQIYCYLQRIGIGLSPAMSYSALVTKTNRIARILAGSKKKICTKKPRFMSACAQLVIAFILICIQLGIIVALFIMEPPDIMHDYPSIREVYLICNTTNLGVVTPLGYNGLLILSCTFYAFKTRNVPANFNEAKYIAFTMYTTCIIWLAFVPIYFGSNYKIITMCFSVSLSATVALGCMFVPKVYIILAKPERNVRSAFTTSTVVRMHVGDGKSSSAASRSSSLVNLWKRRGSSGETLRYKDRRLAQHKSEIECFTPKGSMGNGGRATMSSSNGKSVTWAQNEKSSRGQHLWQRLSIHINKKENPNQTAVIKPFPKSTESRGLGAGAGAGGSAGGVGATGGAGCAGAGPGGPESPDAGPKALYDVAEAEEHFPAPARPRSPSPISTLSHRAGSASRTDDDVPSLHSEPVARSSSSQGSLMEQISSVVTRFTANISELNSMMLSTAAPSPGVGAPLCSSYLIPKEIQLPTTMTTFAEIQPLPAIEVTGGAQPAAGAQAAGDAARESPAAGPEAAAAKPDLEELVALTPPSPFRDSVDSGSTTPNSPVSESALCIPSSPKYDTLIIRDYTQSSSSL
row,SMILES,EC50 [nM]
1,Cc1c(C(=O)N2CCN(C(=O)c3ncn(-c4cccc(F)c4)n3)C(C)(C)C2)n(C)c2ccccc12 [Example 6],197
2,CC1(C)CN(C(=O)c2cc(Cl)c3c(c2)OCCO3)CCN1C(=O)c1ncn(-c2cccc(Cl)c2)n1 [Example 19],51
3,Cc1cc(C)cc(C(=O)N2CCN(C(=O)c3ncn(-c4ccccc4)n3)C(C)(C)C2)c1 [Example 113],76
4,CC1(C)CN(C(=O)c2cccc(-c3ccncc3)n2)CCN1C(=O)c1ncn(-c2cccc(Cl)c2)n1 [Example 86],164
5,CC1(C)CN(C(=O)c2cc3ccccc3c(C3CC3)n2)CCN1C(=O)c1nnn(-c2ccccc2)n1 [Example 205],42
6,Cc1c(C(=O)N2CCN(C(=O)c3ncn(-c4cccc(Cl)c4)n3)C(C)C2)oc2ccccc12 (centres unmarked) [Example 279],530
7,Cc1oc2ccccc2c1C(=O)N1CCN(C(=O)c2ncn(-c3cccc(Cl)c3)n2)C(C)C1 (centres unmarked) [Example 275],170
8,COc1cccc(C(=O)N2CCN(C(=O)c3ncn(-c4ccccc4)n3)C(C)C2)n1 (centres unmarked) [Example 298],619
9,CC1(C)CN(C(=O)c2cc(Cl)c3c(c2)OCCO3)CCN1C(=O)c1nnn(-c2cccc(F)c2)n1 [Example 170],37
10,CCn1cc(-c2cccc(C(=O)N3CCN(C(=O)c4ncn(-c5cccc(Cl)c5)n4)C(C)(C)C3)n2)cn1 [Example 92],119
11,CC1(C)CN(C(=O)c2cc(Br)c(Br)o2)CCN1C(=O)c1ncn(-c2cccc(Cl)c2)n1 [Example 25],62
12,Cn1ccc2cc(C(=O)N3CCN(C(=O)c4ncn(-c5ccccc5)n4)C(C)(C)C3)ccc21 [Example 138],136
13,CC1(C)CN(C(=O)c2cc3ccccc3c(OC3CCCC3)n2)CCN1C(=O)c1ncn(-c2ccccc2)n1 [Example 115],158
14,COCc1c(C(=O)N2CCN(C(=O)c3ncn(-c4cccc(Cl)c4)n3)C(C)C2)oc2ccccc12 (centres unmarked) [Example 274],810
15,COc1ccc(C(=O)N2CCN(C(=O)c3ncn(-c4cccc(Cl)c4)n3)C(C)(C)C2)nc1OC [Example 79],230
16,COc1cccc(C(=O)N2CCN(C(=O)c3ncn(-c4cccc(F)c4)n3)C(C)(C)C2)n1 [Example 4],101

row,SMILES,EC50 [nM]
1,COc1cccc(C(=O)N2CCN(C(=O)c3ncn(-c4cccc(F)c4)n3)CC2C)n1 (centres unmarked) [Example 246],230
2,COc1cccc(-c2cccc(C(=O)N3CCN(C(=O)c4ncn(-c5cccc(Cl)c5)n4)C(C)(C)C3)c2)c1 [Example 69],53
3,"CC1CN(C(=O)c2ncn(-c3cccc(Cl)c3)n2)CCN1C(=O)c1cc(Br)c(Br)o1 (centres unmarked) [Example 210, [1-(3-Chloro-phenyl)-1H-[1,2,4]triazol-3-yl]-[4-(4,5-dibromo-furan-2-carbonyl)-3-methyl-piperazin-1-yl]-methanone]",314
4,Cc1c(C(=O)N2CCN(C(=O)c3ncn(-c4cccc(Cl)c4)n3)CC2C)oc2ccccc12 (centres unmarked) [Example 228],404
5,O=C(c1cc(Br)c(Br)o1)N1CCN(C(=O)c2ncn(-c3cccc(F)c3)n2)C2(CC2)C1 [Example 305],503
6,CC(C)Oc1cccc(C(=O)N2CCN(C(=O)c3ncn(-c4ccccc4)n3)C(C)(C)C2)c1 [Example 126],91
7,"Cn1c(CC2CCCC2)nc2ccc(C(=O)N3CCN(C(=O)c4ncn(-c5ccccc5)n4)C(C)(C)C3)cc21 [Example 179, [4-(2-cyclopentylmethyl-3-methyl-3H-benzoimidazole-5-carbonyl)-2,2-dimethyl-piperazin-1-yl]-(1-phenyl-1H-[1,2,4]-triazol-3-yl)-methanone]",153
8,CC(=O)Nc1ccc2oc(C(=O)N3CCN(C(=O)c4ncn(-c5ccccc5)n4)C(C)(C)C3)c(C)c2c1 [Example 133],1110
9,C#CCOc1cccc(C(=O)N2CCN(C(=O)c3ncn(-c4cccc(Cl)c4)n3)C(C)(C)C2)c1 [Example 72],64
10,CC1CN(C(=O)c2ccc(Cl)s2)CCN1C(=O)c1ncn(-c2cccc(Cl)c2)n1 (centres unmarked) [Example 273],1320
11,"Cc1ccc(-n2cnc(C(=O)N3CCN(C(=O)c4cc(Cl)c5c(c4)OCCO5)CC3(C)C)n2)cc1F [Example 157, [4-(8-Chloro-2,3-dihydro-benzo[1,4]dioxine-6-carbonyl)-2,2-dimethyl-piperazin-1-yl]-[1-(3-fluoro-4-methyl-phenyl)-1H-[1,2,4]triazol-3-yl]-methanone]",364
12,Cc1c(C(=O)N2CCN(C(=O)c3ncn(-c4cccc(Cl)c4)n3)C(C)(C)C2)oc2c(F)cccc12 [Example 53],77
13,COc1cccc(C(=O)N2CCN(C(=O)c3nnn(-c4ccc(F)cc4)n3)C(C)(C)C2)n1 [Example 200],132
14,"COc1cccc(C(=O)N2CCN(C(=O)c3ncn(-c4cccc(F)c4)n3)C3(CC3)C2)n1 [Example 304, {4-[1-(3-Fluoro-phenyl)-1H-[1,2,4]-triazole-3-carbonyl]-4,7-diaza-spiro[2.5]oct-7-yl}-(6-methoxy-pyridin-2-yl)-methanone]",845
15,CCOc1nc(C(=O)N2CCN(C(=O)c3ncn(-c4ccccc4)n3)C(C)(C)C2)cc2ccccc12 [Example 120],43
16,CC1CN(C(=O)c2ncn(-c3cccc(Cl)c3)n2)CCN1C(=O)c1ccc2c(c1)nc(CC1CCCC1)n2C (centres unmarked) [Example 229],512
